Data taken from patent publication US11242321B2, “Salt forms of organic compound” (KAINOS MEDICINE INC., priority 2018, dated 2022).

How the values were obtained:
[1] = Solubility screen of the free acid in various solvents (incremental solvent addition, visual); format: physicochemical; settings: Ca. 10 mg free acid
Text: The free base (or zwitterionic) Compound 1 can be dissolved in unbuffered water, a range of organic solvents, mixtures of organic solvents and mixtures of solvents with unbuffered water. The solvents assessed were 1,1-dimethoxyethane, acetonitrile, ethanol, 1,2-dichloroethane, benzonitrile, ethyl acetate, 1,4-dioxane, anisole, heptane, 2-butanol, cumene, hexane, 2-propanol, cyclohexane, isopropyl acetate, 4-methyl-pentan-2-one, dichloromethane, methanol, acetone, diisopropyl ether (DIPE), isobutyl acetate, tetralin, toluene, methylethyl ketone, N-methylpyrrolidone, tert-butylmethyl ether, nitromethane, pyridine, tetrahydrofuran.
Ca. 10 mg of the free acid of Compound 1 was weighed into 2 mL HPLC vials prior to the addition of solvent in 100-250 μL increments up to a maximum of 1750 μL. After each addition of solvent the samples were briefly shaken to encourage dissolution and visually inspected for signs of any remaining solid. Once the maximum volume of solvent had been added, 1.1 eq of 1M NaOH(aq) solution was also added, to give an indication as to which of the solvents would yield a suitable salt form. The samples were visually inspected prior to maturation for 2 days, after which all were inspected again. All the samples were then left to evaporate at RT to generate solid material.

[2] = Aqueous solubility assessment of salt screen solids (visual); settings: Ca. 5 mg in up to 4000 μL water (1.25 mg/ml), shaken overnight at 50° C.; for Solubility assessment (dissolution in deionized water), salt from DIPE: salt prepared from DIPE; for Solubility assessment (dissolution in deionized water), salt From Ethanol: salt prepared from ethanol
Procedure: Aqueous solubility assessment was performed using Ca. […] These samples were added to aliquots of deionized water up to a maximum of 4000 μL with the samples being shaken between additions to encourage dissolution prior to a visual inspection.

[3] = Stability at 40° C./75% RH; format: physicochemical
[4] = pH1 stability; format: physicochemical; settings: pH 1 buffer, 4 h at 37° C.
Procedure: Ca. 25 mg of each of the salts were weighed into a 2 mL HPLC vial prior to the addition of 1 mL of pH 1 buffer. The samples were then shaken for 4 h at 37° C. before being filtered into SPE cartridges and dried overnight.

[5] = Dynamic vapor sorption (DVS); format: physicochemical
Procedure: SMS DVS Intrinsic dynamic vapour sorption instrument using DVS-Intrinsic control software v1.0.6.0. Analysis of the data was performed using the DVS analysis suite v7.0.13.1 macro program embedded in Microsoft Excel. Analysis was performed as a wt % change from 0-90% RH with isothermal plots also being examined.
Ca. 10-15 mg of sample was weighed into a stainless steel DVS basket before submitting for analysis. The samples were analysed over the range of 0-90% RH with a maximum time of 6 hours per humidity stage. Each sample was exposed to a double cycle. XRPD analysis of all samples was performed post-DVS.

O=C(CSc1ccc(Br)cc1)Nc1cn(CCc2ccccc2)nc1C(=O)O [Compound 1, 4-(2-((4-bromophenyl)thio)acetamido)-1-phenethyl-1H-pyrazole-3-carboxylic acid]
Solvent Addition ([1]; solvent 1,1-Dimethoxyethane, increments up to maximum 1750 μL): 1750 µL | Solvent Addition ([1]; solvent 1,2-Dichloroethane, maximum 1750 μL): 1750 µL | Solvent Addition ([1]; solvent 1,4-Dioxane, maximum 1750 μL): 750 µL | Solvent Addition ([1]; solvent 2-Butanol, maximum 1750 μL): 1750 µL | Solvent Addition ([1]; solvent 2-Propanol, maximum 1750 μL): 1750 µL | Solvent Addition ([1]; solvent 4-methyl-pentan-2-one, maximum 1750 μL): 1750 µL | Solvent Addition ([1]; solvent Acetone, maximum 1750 μL): 1750 µL | Solvent Addition ([1]; solvent Acetonitrile, maximum 1750 μL): 1750 µL | Solvent Addition ([1]; solvent Anisole, maximum 1750 μL): 1750 µL | Solvent Addition ([1]; solvent Benzonitrile, maximum 1750 μL): 1750 µL | Solvent Addition ([1]; solvent Cumene, maximum 1750 μL): 1750 µL | Solvent Addition ([1]; solvent Cyclohexane, maximum 1750 μL): 1750 µL | Solvent Addition ([1]; solvent Dichloromethane, maximum 1750 μL): 1750 µL | Solvent Addition ([1]; solvent Diisopropyl ether, maximum 1750 μL): 1750 µL | Solvent Addition ([1]; solvent Ethanol, maximum 1750 μL): 1750 µL | Solvent Addition ([1]; solvent Ethyl acetate, maximum 1750 μL): 1750 µL | Solvent Addition ([1]; solvent Heptane, maximum 1750 μL): 1750 µL | Solvent Addition ([1]; solvent Hexane, maximum 1750 μL): 1750 µL | Solvent Addition ([1]; solvent Isobutyl Acetate, maximum 1750 μL): 1750 µL | Solvent Addition ([1]; solvent Isopropyl acetate, maximum 1750 μL): 1750 µL | Solvent Addition ([1]; solvent Methanol, maximum 1750 μL): 1750 µL | Solvent Addition ([1]; solvent Methylethyl ketone, maximum 1750 μL): 1750 µL | Solvent Addition ([1]; solvent N-Methylpyrrolidone, maximum 1750 μL): 250 µL | Solvent Addition ([1]; solvent Nitromethane, maximum 1750 μL): 1750 µL | Solvent Addition ([1]; solvent Pyridine, maximum 1750 μL): 1750 µL | Solvent Addition ([1]; solvent Tetrahydrofuran, maximum 1750 μL): 750 µL | Solvent Addition ([1]; solvent Tetralin, maximum 1750 μL): 1750 µL | Solvent Addition ([1]; solvent Toluene, maximum 1750 μL): 1750 µL | Solvent Addition ([1]; solvent Water, maximum 1750 μL): 1750 µL | Solvent Addition ([1]; solvent tert-Butylmethyl ether, maximum 1750 μL): 1750 µL

O=C(CSc1ccc(Br)cc1)Nc1cn(CCc2ccccc2)nc1C(=O)O.c1ccc(CNCCNCc2ccccc2)cc1 [N,N′-Dibenzylethylenediamine, salt of 4-(2-((4-bromophenyl)thio)acetamido)-1-phenethyl-1H-pyrazole-3-carboxylic acid and N,N′-dibenzylethylenediamine]
Solubility assessment (dissolution in deionized water), salt from MIBK ([2]; salt prepared from MIBK): No dissolution

CCNC[C@H](O)[C@@H](O)[C@H](O)[C@H](O)CO.O=C(CSc1ccc(Br)cc1)Nc1cn(CCc2ccccc2)nc1C(=O)O [N-Ethylglucamine, salt of 4-(2-((4-bromophenyl)thio)acetamido)-1-phenethyl-1H-pyrazole-3-carboxylic acid and N-ethylglucamine]
Solubility assessment (dissolution in deionized water), salt from DIPE [2]: Partial | Solubility assessment (dissolution in deionized water), salt From Ethanol [2]: Partial

CNC[C@H](O)[C@@H](O)[C@H](O)[C@H](O)CO.O=C(CSc1ccc(Br)cc1)Nc1cn(CCc2ccccc2)nc1C(=O)O [N-Methylglucamine, salt of 4-(2-((4-bromophenyl)thio)acetamido)-1-phenethyl-1H-pyrazole-3-carboxylic acid and N-methylglucamine]
Solubility assessment (dissolution in deionized water), salt From Ethanol [2]: Partial

salt of 4-(2-((4-bromophenyl)thio)acetamido)-1-phenethyl-1H-pyrazole-3-carboxylic acid and N-(phenylmethyl)benzeneethaneamine [N-(Phenylmethyl) benzeneethaneamine]
Solubility assessment (dissolution in deionized water), salt from DIPE [2]: No dissolution | Solubility assessment (dissolution in deionized water), salt From Ethanol [2]: No dissolution

salt of 4-(2-((4-bromophenyl)thio)acetamido)-1-phenethyl-1H-pyrazole-3-carboxylic acid and calcium acetate
Solubility assessment (dissolution in deionized water), salt From Ethanol [2]: No dissolution

salt of 4-(2-((4-bromophenyl)thio)acetamido)-1-phenethyl-1H-pyrazole-3-carboxylic acid and diethylamine [diethylamine salt]
Observation post stability (40° C./75% RH) [3]: No visible change | XRPD post stability (40° C./75% RH) [3]: Crystalline-no change in form | Chemical purity post stability (40° C./75% RH) ([3]; HPLC): >99.9% (by peak area) | Observations post stability (pH 1 for 4 h) [4]: No visual change | Chemical purity post stability (pH 1 for 4 h) ([4]; HPLC): >99.9% (by peak area) | 1H NMR post stability (pH 1 for 4 h) ([4]; cell continues: salt form is no longer present): Reduction in chemical shifts, indicating that salt form is no | DVS mass increase between 0-90% RH, first cycle ([5]; 0-90% RH, first cycle): Ca. 0.1% mass increase between 0-90% RH on the first cycle | DVS mass increase between 0-90% RH, second cycle ([5]; 0-90% RH, second cycle): Ca. 0.1% mass increase between 0-90% RH on the first cycle | XRPD post DVS ([5]; after double cycle 0-90% RH): Crystalline-no change in form

salt of 4-(2-((4-bromophenyl)thio)acetamido)-1-phenethyl-1H-pyrazole-3-carboxylic acid and magnesium acetate
Solubility assessment (dissolution in deionized water), salt From Ethanol [2]: No dissolution

salt of 4-(2-((4-bromophenyl)thio)acetamido)-1-phenethyl-1H-pyrazole-3-carboxylic acid and tromethamine
Solubility assessment (dissolution in deionized water), salt From Ethanol [2]: No dissolution
